# Data published in US20150031686A1, “PHENYL-OXAZOLYL DERIVATIVES, PREPARATION METHOD THEREOF, AND RELATED APPLICATION OF THE PHENYL-OXAZOLYL DERIVATIVES AS AN IMPDH INHIBITOR” (INSTITUTE OF MEDICINAL BIOTECHNOLOGY, CHINESE ACADEMY OF …, priority 2012, published 2015).
# Tests used:
# [1] = system: human hepatoma cell HepG2; assay: In vitro human hepatoma cell HepG2 inhibitory activity (MTT); type: cell-based; details: HepG2, 48 h; for IC50: Homo sapiens
# Source text: (§1) According to the progress in the studies on anticancer drugs using IMPDH as a target, the present invention measured inhibitory activities of the compounds of present invention against human hepatoma cell HepG2 and human lung adenocarcinoma cell A549, respectively, the measured results are shown in Table 5:
# In Vitro Human Hepatoma Cell HepG2 Inhibitory Activity Measurement
# Collect well growing tumor cells, prepare 6×10^4/ml cell suspension in RPMI-1640 or DMEM culture medium containing 10% FBS, seed in 96-well plates, 100 μl suspension each well, incubate at 37° C. under 5% CO2 atmosphere for 24 h, add the test solution (final concentration of drug: 0.625, 1.25, 2.5, 5.0, 10 μg/ml), for each concentration set three parallel holes, set positive control (cisplatin 10, 1, 0.1 μg/ml) and a blank control simultaneously. After culture for 48 h discard the supernatants, add into each well 10 μl MTT solution (5 mg/ml, prepared with RPMI-1640 medium), continue culturing for 4 It, add into each hole 100 μl acidified isopropanol cell lysate, culture overnight, measure absorbance (A) values with Bio-Tek MQX200 type microplate reader with the detection wavelength at 540 nm, and reference wavelength 450 nm. Calculate the inhibition rate as follows: inhibition rate=(Ablank−Asample)/Ablank control×100%. Use Graphpad Prism 5 statistical software to calculate IC50.
# [2] = system: Coxsackie virus type B3 (COX-B3); assay: Anti-Coxsackie virus type B3 (COX-B3) activity, CPE in Vero cells; type: cell-based; details: Reed-Muench
# Experimental: (§2) With Vero (African green monkey kidney) cells as viral hosts, inhibitory effects of the compounds of present invention on the grades of pathological lesions by coxsackievirus B3 (COX-B3), B6 (COX-B6) viruses in Vero cells were determined. The measured results of viral inhibitory activity of the compounds are shown in Table 3 and Table 4; wherein RBV is the control drug ribavirin. The inhibitory activities of the measured compounds against coxsackievirus B3, B6 were stronger than the control.
# (§3) Screening of Anti-B3, B6 Type Coxsackie Viruses (COX-B3, COX-B6) Activity of the Samples
# (§4) Prepare stock solutions of COX-B3 (or COX-B6) virus strains as well as tested compounds in DMSO before use. Before tests, dilute the stock solution with culture solution into a certain concentration and then dilute 3 times to make a total of eight dilutions. Use ribavirin (RBV) as positive control. Test procedures are as follows: seed Vero cells into 96-well culture plates, infect with 10^−5 Coxsackie virus of B3 (or B6) type, 24 hours later; adsorb subsequently for 2 hours, then discard the virus solution, add in the sample compounds and the positive control according to the abovementioned dilutions, set cell control wells and virus control wells simultaneously. When the cytopathic effect (CPE) of cells in the virus control wells reach 4+, observe CPE of the cells in each group. Use Reed-Muench method to calculate 50% inhibitory concentration (IC50) of the sample compounds against coxsackie virus B3 (or B6) type.
# [3] = system: Coxsackie virus type B6 (COX-B6); assay: Anti-Coxsackie virus type B6 (COX-B6) activity, CPE in Vero cells; type: cell-based; details: Reed-Muench
# Experimental: as §2, §3, §4
# [4] = system: human lung adenocarcinoma cell A549; assay: In vitro human lung adenocarcinoma cell A549 inhibitory activity (MTT); type: cell-based; details: A549, 48 h; for IC50: Homo sapiens
# Source text: as §1
# In Vitro Human Lung Adenocarcinoma Cell A549 Inhibitory Activity Measurement
# Cell lines: human lung adenocarcinoma cell A549. Collect well growing tumor cells, prepare cell suspension with Ham's F12 culture solution containing 10% fetal calf serum medium, seed the suspension in 96-well plates, each well 100 μl suspension at 5000 cells/well, incubate at 37° C., under 5% CO2 atmosphere, 24 h later, add 2×drug solution […], each concentration in three parallel holes, set the blank control simultaneously. After culture for 48 h, add 20 μl (5 mg/ml) MTT to each well, culture 4 h, discard the supernatants. Measure absorbance (A) values using Bio-Rad 680 microplate reader at a detection wavelength of 570 nm, the survival rate (%) is calculated as follows: AsampleAblank control×100%. Use statistical software Graphpad Prism5 to calculate IC50. After primary screening of all samples, adjust the concentration gradient of the samples with IC50<100 μg/ml to do additional screenings, which are carried out with two parallel determinations.
# IMPDH = IMPDH inhibition activity (A340, IMP substrate, NAD); type: biochemical; details: compound at 10 μg/mL
# Experimental: Measurement of IMPDH Inhibitor Activity
# In 96-well plates, use IMP as the substrate and NAD, NADH as chromogenic agents to determine the activity of the compounds described in this invention as IMPDH inhibitor. Add 2 μl of each of the tested sample solution, 20 μl enzyme extract and 30 μl IMP into a sample well in the 96-well plates; 2 μl DMSO and 30 μl IMP solution into a control well; 2 μl DMSO and 20 μl IMPDH buffer instead of the enzyme extract and 30 μl IMP solution into a blank well. Keep plates at constant 37° C. for 15 min, measure absorbance values A340 (OD1) of the solutions in various wells; subsequently, add into each well with 50 μl NAD, keep at constant 37° C. for 50 min, then measure A340 (OD2) values. Calculate IMPDH inhibition rates of samples as follows: Inhibition (%)=[(OD2−OD1)control−(OD2−OD1)Sample]/[(OD2−OD1)control−(OD2−OD1)Blank]×100%.
Compound,IC50 [1] [µg/mL],IC50 [2] [µg/mL],IC50 [3] [µg/mL],IC50 [4] [µg/mL],inhibition rate (%) 10 μg/mL (IMPDH) [%],HepG2 IC50 [1] [µg/mL],A549 IC50 [4] [µg/mL]
"COc1cc(/N=C/c2ccc([N+](=O)[O-])o2)ccc1-c1cnco1 [Compound 49, N-(5-nitrofuran-2-methylidene)-3-methoxy-4-(oxazol-5-yl) aniline]",0.897,0.82,1.53,4.84,,,
"COc1cc(NCc2ccsc2)ccc1-c1cnco1 [Compound 11, N-(thien-3-ylmethyl)-3-methoxy-4-(oxazol-5-yl) aniline]",42.1,0.44,1.33,29.7,69.6,,
"COc1cc(NCc2csc3ccccc23)ccc1-c1cnco1 [Compound 20, N-(benzothien-3-ylmethyl)-3-methoxy-4-(oxazol-5-yl) aniline]",2.88,0.64,0.82,11.6,47.7,,
"COc1cc(NCc2ccncc2)ccc1-c1cnco1 [Compound 56, N-(pyridin-4-ylmethyl)-3-methoxy-4-(oxazol-5-yl) aniline]",,5.75,4.28,,37.4,,
"COc1cc(NCc2cccc(C)n2)ccc1-c1cnco1 [Compound 57, N-(6-methylpyridin-2-ylmethyl)-3-methoxy-4-(oxazol-5-yl) aniline]",42.8,2.47,1.88,36.7,45.1,,
"COc1cc(NCc2scnc2C)ccc1-c1cnco1 [Compound 54, N-(4-methylthiazol-5-ylmethyl)-3-methoxy-4-(oxazol-5-yl) aniline]",53.3,1.43,3.18,29.5,,,
COc1cc(NC/C=C/c2ccccc2)ccc1-c1cnco1 [Compound 62],> 100,0.63,1.43,32,,,
"COc1cc(/N=C/C=C/c2ccccc2)ccc1-c1cnco1 [Compound 65, N-(phenylpropen-1-ylidene)-3-methoxy-4-(oxazol-5-yl)-aniline]",,1.23,5.75,,32.0,,
"COc1cc(NCc2ccc(-c3ccccc3)s2)ccc1-c1cnco1 [Compound 6, N-(5-phenylthien-2-ylmethyl)-3-methoxy-4-(oxazol-5-yl) aniline]",31.8,0.47,0.27,16.9,,,
"N.N.[Cl][Pt][Cl] [Cisplatin, reference compound]",,,,,,104.1,263.4
"CCc1ccc(CNc2ccc(-c3cnco3)c(OC)c2)s1 [Compound 3, N-(5-ethylthien-2-ylmethyl)-3-methoxy-4-(oxazol-5-yl) aniline]",20.9,0.35,1.43,10.7,,,
"COc1cc(NCc2cncs2)ccc1-c1cnco1 [Compound 55, N-(thiazol-5-ylmethyl)-3-methoxy-4-(oxazol-5-yl) aniline]",42.1,1.88,3.25,31.9,,,
"COc1ccc(-c2cnco2)cc1NCc1cccs1 [Compound 21, N-(thien-2-ylmethyl)-2-methoxy-5-(oxazol-5-yl) aniline]",> 100,2.47,3.25,122,,,
"COc1ccc(-c2cnco2)cc1NCc1ccc(C)s1 [Compound 22, N-(5-methylthien-2-ylmethyl)-2-methoxy-5-(oxazol-5-yl) aniline]",9.9,0.82,3.83,26.2,,,
"COc1cc(NCc2cccs2)ccc1-c1cnco1 [Compound 1, N-(thien-2-ylmethyl)-3-methoxy-4-(oxazol-5-yl) aniline]",0.95,0.44,0.44,,65.7,,
"COc1cc(NCc2ccc(C(=O)O)s2)ccc1-c1cnco1 [Compound 7, 5-(3-methoxy-4-oxazol-5-yl-anilinomethyl)-thien-2-yl carboxylic acid]",> 100,> 66.7,18.5,> 100,,,
"COc1cc(/N=C/c2ccc(F)cc2)ccc1-c1cnco1 [Compound 64, N-(4-Fluorophenylmethylidene)-3-methoxy-4-(oxazol-5-yl)-aniline]",,4.28,17.2,,,,
"COc1ccc2[nH]cc(CNc3ccc(-c4cnco4)c(OC)c3)c2c1 [Compound 52, N-(5-methoxy-1H-indol-3-ylmethyl)-3-methoxy-4-(oxazol-5-yl) aniline]",,3.25,> 2.47,,,,
"COc1cc(/N=C/c2cccs2)ccc1-c1cnco1 [Compound 9, N-(thien-2-ylmethylene)-3-methoxy-4-(oxazol-5-yl) aniline]",,12.8,12.8,,,,
"COc1cc(NCc2ccco2)ccc1-c1cnco1 [Compound 41, N-(furan-2-ylmethyl)-3-methoxy-4-(oxazol-5-yl) aniline]",40,0.63,1.88,22.8,,,
"COc1ccc(CNc2ccc(-c3cnco3)c(OC)c2)cn1 [Compound 60, N-(6-methoxy-pyridin-3-ylmethyl)-3-methoxy-4-(oxazol-5-yl) aniline]",,0.57,3.15,,,,
"COc1cc(NCc2cc3ccccc3s2)ccc1-c1cnco1 [Compound 10, N-(benzothien-2-ylmethyl)-3-methoxy-4-(oxazol-5-yl) aniline]",21.7,0.27,0.36,26.8,,,
COc1cc(NS(C)(=O)=O)ccc1-c1cnco1 [Compound 68],,1.53,7.41,,,,
